Read-outs that look alike come from different tables or passages of the source.
Tests used:
microbes on skin = conditions: general statement, no test given; cited from earlier work
[1] = Protocol: Ten microliters of each of (a), (b), (c), (d), 2-ethyl-1,3-hexanediol (EHD), N,N-diethyl-m-toluamide (DT), or N,N-diethoxy-m-toluamide (DOT) were applied to separate 7 cm^2 patches of greentree python snake skin once daily for 3 days. At the end of the application period, the patches were washed five times each day for three days with 20 μl of 50/50 ethanol/water using a 3 cm diameter cylinder to enable collection of the washings. The amount of insect repellent washed off was quantified using reverse phase HPLC, C^14 radiocounting or AT/FTIR. The percentage remaining bound after 5, 10, and 15 washes was designated as 100×(amount applied-amount washed off)/(amount applied) and was averaged for 5 samples.
[2] = Humectant remaining bound to snake skin after washing; design: species or system greentree python snake
Protocol: In the case of (b), 10 μl of ETS was also applied immediately after solution (b).

[3] = tested on: normal skin bacteria (results for S. aureus reported); experiment: Quantitation of microbial growth on human skin (expanded flora); assay type: in vivo
Protocol: The third test involved growing normal skin bacteria by covering the skin with an occlusive dressing such as Saran Wrap (this is referred to as expanding the flora). Prior to expanding the flora, the skin test sites were treated with the test or control solutions as described above. The flora was then expanded for 24 hours, followed by quantitating the bacteria growth. This was done by washing an area of skin with liquid growth medium and spreading the washing on an agar plate. After the bacteria grew the number colonies were counted (Table 8).
(§1) Each result was averaged for samples.

S. aureus [4] = experiment: Zone of inhibition on agar of treated snake skin patches; assay type: cell-based; conditions: 24 hours
Protocol: The patches of snake skin were assayed for antimicrobial activity using 3 methods: (1) zone of antimicrobial activity on agar due to diffusion, (2) quantitation of microbial growth in solution mixing with patch, and (3) quantitation of microbial growth on human skin. The first method was a standard zone of inhibition study in which the bacteria was streaked onto an agar plate, the disk containing the test material was placed on the plate, and then the bacteria were allowed to grow for 24 hours.
as §1

[5] = by infants; general statement; cited from earlier work
S. aureus [6] = experiment: Quantitation of microbial growth in solution mixing with treated snake skin patch; assay type: cell-based; conditions: for Microbe Growth/Solution after 5 washes / Microbe Growth/Solution after 15 washes / Microbe Growth/Solution after 10 washes: S. aureus, treated snake skin, 24 hours
Protocol: In the second test, tubes containing liquid growth medium were inoculated with bacteria, and then the test disk was placed in the tube. The bacteria was allowed to grow for 24 hours and then the number of bacteria per ml was quantified either by light reflectance or by removing a small volume and streaking on an agar plate. The latter method was followed by allowing the bacteria to grow and then counting the colonies (Table 7).
as §1

[7] = Modified Draise test: erythema by salicylic acid on treated rabbit skin; assay type: in vivo; conditions: in words, from Table 10
Protocol: The skin test on rabbits was essentially a modified Draise test for skin in which unabraded skin was studied on partially occluded sites. The skin irritation study was started following skin treatment by one of the test compounds above. In this test, after the compound was applied to the skin, a known skin irritant, 10 μl of 5% salicylic acid in a 50/50 by volume mixture of ethanol/water, was applied once a day for 3 days. The skin was rated for erythema using the scale of 0--no erythema to 4--severe erythema.

[8] = design: species or system greentree python snake
Protocol: Ten microliters (a), (b), (c), (d), AT or ethanol/cyclomethicone vehicle was applied separately to a 7 cm^2 patch of greentree python snake skin once daily for 3 days or to a 7 cm^2 patch of shaved rabbit skin. At the end of the application period, the patches were washed five times each day for three days with 20 μl of 50/50 ethanol/water using a 3 cm diameter cylinder to enable collection of the washings. The amount of skin protectant washed off was quantitated using reverse phase HPLC, C^14 radiocounting or AT/FTIR. The percentage remaining bound after 5, 10, and 15 washes was designated as 100×(amount applied-amount washed off)/(amount applied) and was averaged for the 5 samples.

[9] = snake skin, insect repellent, 50/50 ethanol/water washes
[10] = human skin, flora expanded 24 hours, S. aureus

In the case of `[H]/N=C(\N/C(=N/[H])NCCCCCCNC(=N)NC(=N)Nc1ccc(Cl)cc1)Nc1ccc(Cl)cc1` [Chlorhexidene, Chlorhexidine], the “antimicrobial effectiveness on skin” value (microbes on skin) is given as “very effective” and the “toxicity / side effects of topical antimicrobial” value (microbes on skin) is given as “causes severe skin drying”.
With `CCON(OCC)C(=O)c1cccc(C)c1` [DOT, N,N-diethoxy-m-toluamide] the “% bound after 5 washes” value [1] was 6%, the “% bound after 10 washes” value [1] was 1% and the “% bound after 15 washes” value [1] was 1%.
With `CCN(CC)C(=O)c1cccc(C)c1` [DT, N,N-diethyl-m-toluamide] the “% bound after 5 washes” value [1, 9] was 10%, the “% bound after 10 washes” value [1, 9] was 5% and the “% bound after 15 washes” value [1, 9] was 2%.
For `CCCC(O)C(CC)CO` (centres unmarked) [EHD, 2-ethyl-1,3-hexanediol], the “% bound after 5 washes” value [1] was 7%, the “% bound after 10 washes” value [1] was 2% and the “% bound after 15 washes” value [1] was 2%.
In the case of `OCC(O)CO` [GL, Glycerol], the “% bound after 5 washes” value [2] is reported as 1%, the “% bound after 10 washes” value [2] is reported as 0% and the “% bound after 15 washes” value [2] is reported as 0%.
In the case of `Oc1c(Cl)cc(Cl)c(Cl)c1Cc1c(O)c(Cl)cc(Cl)c1Cl` [HCP, Hexachlorophene], the “Microbe Growth/on Skin after 0 washes” value [3, 10] is reported as 0 CFU, the “Microbe Growth/on Skin after 5 washes” value [3, 10] is reported as 10^2 CFU and the “Microbe Growth/on Skin after 15 washes” value [3, 10] is reported as 10^5 CFU. For the same compound, the “Zone of Inhibition after 5 washes” value (S. aureus [4]) was 18 mm, the “Zone of Inhibition after 10 washes” value (S. aureus [4]) was 0 mm and the “Zone of Inhibition after 15 washes” value (S. aureus [4]) was 0 mm. For the same compound, the “toxicity / side effects of topical antimicrobial” value (microbes on skin) was “highly toxic”, the absorption [5] was “rapidly absorbed by infants” and the “Microbe Growth/Solution after 5 washes” value (S. aureus [6]) was 0 CFU. The “Microbe Growth/Solution after 15 washes” value (S. aureus [6]) was 10^3 CFU.
For `O=C(O)CC(O)C(=O)O` (centres unmarked) [MA, Malic acid], the “Microbe Growth/on Skin after 5 washes” value [3, 10] was 10^5 CFU, the “Microbe Growth/on Skin after 15 washes” value [3, 10] was 10^5 CFU and the “Zone of Inhibition after 5 washes” value (S. aureus [4]) was 15 mm. For the same compound, the “Zone of Inhibition after 10 washes” value (S. aureus [4]) was 0 mm, the “Zone of Inhibition after 15 washes” value (S. aureus [4]) was 0 mm and the “Microbe Growth/Solution after 5 washes” value (S. aureus [6]) was 0 CFU. For the same compound, the “Microbe Growth/Solution after 10 washes” value (S. aureus [6]) was 10^2 CFU and the “Microbe Growth/Solution after 15 washes” value (S. aureus [6]) was 10^3 CFU.
With `[O-][n+]1ccccc1S` [PYR, Pyrithione] the “Microbe Growth/on Skin after 5 washes” value [3, 10] was 10^4 CFU, the “Microbe Growth/on Skin after 15 washes” value [3, 10] was 10^5 CFU and the “Zone of Inhibition after 5 washes” value (S. aureus [4]) was 10 mm. For the same compound, the “Zone of Inhibition after 10 washes” value (S. aureus [4]) was 0 mm, the “Zone of Inhibition after 15 washes” value (S. aureus [4]) was 0 mm and the “Microbe Growth/Solution after 5 washes” value (S. aureus [6]) was 0 CFU. For the same compound, the “Microbe Growth/Solution after 10 washes” value (S. aureus [6]) was 10^2 CFU and the “Microbe Growth/Solution after 15 washes” value (S. aureus [6]) was 10^3 CFU.
With `NC(=O)NC1NC(=O)NC1=O` (centres unmarked) [allantoin, Allantoin] the “protection from skin erythema by salicylic acid” value [7] was “does provide some protection from skin erythema by salicylic acid, this protection is lost if the skin is washed” and the “adherence to / retention on skin” value [8] was “enhanced when applied with a polymerizing siloxane”.
In the case of `CCO[Si](CCCN)(OCC)OCC` [aminofunctional silane coupling agent, Aminopropyltriethoxysilane], the “antibacterial activity on human skin” value ([3]; in words, from Table 8) is reported as “inhibitory activity on bacterial growth on human skin”, the “microbial inhibitory activity on the skin” value ([3]; in words, no data at the place) is reported as “substantial microbial inhibitory activity on the skin” and the microbiocidal activity (S. aureus [6]; in words, from Table 7) is reported as “not bactericidal”.
In the case of `O=C(Nc1ccc(Cl)cc1)Nc1ccc(Cl)c(Cl)c1` [trichlorocarban], the “antimicrobial effectiveness on skin” value (microbes on skin) is given as “relatively ineffective”.
In the case of `Oc1cc(Cl)ccc1Oc1ccc(Cl)cc1Cl` [triclosan, Triclosan], the “antimicrobial effectiveness on skin” value (microbes on skin) is listed as “relatively ineffective”.
In the case of Hyaluronic acid [HA], the “% bound after 5 washes” value [2] is reported as 5%, the “% bound after 10 washes” value [2] is reported as 1% and the “% bound after 15 washes” value [2] is reported as 0%.
In the case of “allantion-mono(triethoxy)siloxy ester [Example 6 (d)]”, the “% bound after 5 washes” value [8] is reported as 47%, the “% bound after 10 washes” value [8] is reported as 36% and the “% bound after 15 washes” value [8] is reported as 21%.
